{"source": "patent US20220395487A1", "about": "“RIG-I INNATE IMMUNE RECEPTOR ANTAGONISTS AND METHODS OF USING SAME” (YALE UNIVERSITY, priority 2019, published 2022)", "key": {"RIG-I [1]": {"target": "T1, RIG-I (Homo sapiens, UniProt O95786)", "T1 sequence (O95786 1-925)": "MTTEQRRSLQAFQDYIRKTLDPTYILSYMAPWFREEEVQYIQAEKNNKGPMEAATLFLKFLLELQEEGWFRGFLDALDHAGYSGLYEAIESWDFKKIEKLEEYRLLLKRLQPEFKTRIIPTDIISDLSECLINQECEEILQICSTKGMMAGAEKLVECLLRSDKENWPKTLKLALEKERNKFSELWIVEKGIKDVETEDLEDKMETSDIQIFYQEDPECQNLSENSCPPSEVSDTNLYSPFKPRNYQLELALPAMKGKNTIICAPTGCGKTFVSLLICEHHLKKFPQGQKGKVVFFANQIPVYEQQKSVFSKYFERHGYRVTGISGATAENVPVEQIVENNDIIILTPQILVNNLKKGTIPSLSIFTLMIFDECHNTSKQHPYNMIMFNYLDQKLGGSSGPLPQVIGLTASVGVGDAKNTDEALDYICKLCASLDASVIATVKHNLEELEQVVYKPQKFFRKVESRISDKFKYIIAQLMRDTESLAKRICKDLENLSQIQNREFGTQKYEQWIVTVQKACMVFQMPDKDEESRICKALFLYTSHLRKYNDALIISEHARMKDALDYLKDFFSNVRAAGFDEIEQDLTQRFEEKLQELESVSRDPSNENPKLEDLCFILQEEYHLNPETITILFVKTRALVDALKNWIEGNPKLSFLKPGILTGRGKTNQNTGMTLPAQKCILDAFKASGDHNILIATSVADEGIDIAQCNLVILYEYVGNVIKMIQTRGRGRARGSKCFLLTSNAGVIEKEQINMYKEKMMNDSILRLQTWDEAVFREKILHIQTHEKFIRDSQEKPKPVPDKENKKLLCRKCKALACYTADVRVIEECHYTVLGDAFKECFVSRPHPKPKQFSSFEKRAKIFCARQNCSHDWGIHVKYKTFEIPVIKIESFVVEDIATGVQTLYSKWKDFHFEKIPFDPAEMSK", "test": "qRT-PCR of IFN and ISG levels in A549 cells with endogenous RIG-I", "format": "cell-based", "details": "SLR14 challenge, qRT-PCR normalized to HPRT", "method": "In the second assay, inhibition of RIG-I that is endogenously expressed in A549 cells was evaluated by monitoring IFN and ISG levels by qRT-PCR. A549 cells were propagated in T75 flasks containing Dulbecco's Modified Eagle Medium, DMEM, (Life Technologies) supplemented with 10% heat-inactivated fetal bovine serum (Hyclone) and Non-Essential Amino Acids (Life Technologies). For the assay, 0.5 ml of cells at 100,000 cells/ml was seeded in 24-well plates. After 24 h, DMEM growth media was replaced with media containing drug, as described above for the IFN induction assay using HEK293T cells. After 30 minutes, the cells were transfected with 1 μg of the synthetic stem-loop RNA (SLR14), using the Lipofectamine 2000 transfection reagent. After 5-6 hours, cells were harvested and total RNA was isolated using E.Z.N.A total RNA isolation kit (Omega Bio-tek), following the manufacturer's instructions. Genomic DNA contamination was removed by DNase I treatment (Omega Bio-tek) directly on the Mini column. Total RNA was reverse-transcribed into cDNA using iScript Reverse Transcription Supermix (Bio-RAD) according to the manufacturer's instructions. […] Each sample was analyzed in triplicate and normalized to HPRT expression. Gene expression quantification was performed according to the Livak ΔΔCt method."}, "RIG-I [2]": {"target": "T1, RIG-I", "test": "Absorbance titration of compound with RIG-I protein", "format": "binding", "set-up": "The native, full-length protein was expressed and purified using methods adapted from published protocols; SUMO (pET-SUMO vector; captured on Ni-NTA) (N, cleaved yes); made in house; host or cells: Rosetta II(DE3) Escherichia coli", "method": "FIG. 1A illustrates the structure of RIG-I ΔCARDs bound to a 14 base pair RNA duplex with ADP▪BeF3 (PDBID:5E3H). FIG. 1B illustrates representative IC50 curves for active compounds. Relative activity of a compound was calculated as a fraction of “no inhibitor” measurement and plotted vs. inhibitor concentration. Each data point represents a mean of n=3 determinations±the standard deviation. FIG. 1C illustrates a representative absorption titration spectra of RIG012 binding to RIG-I. Protein concentrations are indicated in figure legend. (Inset) Stoichiometry of RIG-I binding. Fraction bound (A) is plotted against fractional change in RIG-I concentration (ΔRIG-I). Slope=0.95±0.06. […]\nAlthough IC50 values provide a valuable metric of association for enzyme inhibitors, it was of interest to determine directly whether the lead compound, RIG012, binds to the RIG-I protein. Binding studies were facilitated by the fact that RIG012 contains a strong chromophore that absorbs in the visible range (λmax of 470 nm), making it possible to conduct classical absorbance titrations of the compound with increasing amounts of RIG-I. Upon binding to RIG-I, the 470 nm absorbance band of RIG012 undergoes a dramatic hyperchromic shift to higher intensity values, and the magnitude of this shift is proportional to the relative fraction of bound small molecule (FIG. 1C). […]"}}, "data": [{"smiles": "CCC1(CC)C(=O)N=C2C1=C(OCc1ccccc1)C(=O)c1ccccc12", "note": "[RIG012, 4-Benzyloxy-3,3-diethyl-2H,3H,5H-benzo[g]indole-2,5-dione]", "values": [{"measurement": "effect on IFN-β and ISG hRsad2 expression", "setting": "RIG-I [1]", "result": "potent, dose-dependent effect"}, {"measurement": "slope of fraction bound vs fractional change in RIG-I concentration (stoichiometry of RIG-I binding)", "setting": "RIG-I [2]; absorbance titration at 470 nm, two independent experiments ± SD", "result": "0.95±0.06"}, {"measurement": "stoichiometry of compound:RIG-I complex", "setting": "RIG-I [2]; absorbance titration, stoichiometric binding regime", "result": "1:1 complex"}]}]}
